From the NIST ThermoML archive (doi:10.1016/j.jct.2014.01.012)

Experiment: xn = mol fraction of the nth substance listed
Conditions: 101 kPa, Liquid; for speed of sound: Sing-around technique in a fixed-path interferometer; for mass density: Vibrating tube method

CCCCCCn1cc[n+](C)c1.F[P-](F)(F)(F)(F)F [1-hexyl-3-methylimidazolium hexafluorophosphate] + CCCCOC(C)=O
Conditions	mass density [kg/m3]	speed of sound [m/s]
293.15 K, x1 = 0.0956	951.75	1232
293.15 K, x1 = 0.1919	1012.58	1254.6
293.15 K, x1 = 0.273	1056.82	1279.1
293.15 K, x1 = 0.3698	1103.12	1306.9
293.15 K, x1 = 0.4639	1141.87	1329.4
293.15 K, x1 = 0.5701	1179.57	1354.2
293.15 K, x1 = 0.6787	1213.07	1375.9
293.15 K, x1 = 0.7746	1239.19	1395
293.15 K, x1 = 0.8707	1262.73	1412
293.15 K, x1 = 0.9354	1277.66	1425
293.15 K, x1 = 1	1291.38	1436.9
298.15 K, x1 = 0.0956	947.32	1211.1
298.15 K, x1 = 0.1919	1008.36	1234
298.15 K, x1 = 0.273	1052.6	1258.9
298.15 K, x1 = 0.3698	1098.76	1286.7
298.15 K, x1 = 0.4639	1137.51	1309.5
298.15 K, x1 = 0.5701	1175.41	1334.8
298.15 K, x1 = 0.6787	1209.24	1357.2
298.15 K, x1 = 0.7746	1235.56	1377.6
298.15 K, x1 = 0.8707	1259.27	1395.9
298.15 K, x1 = 0.9354	1273.93	1409.2
298.15 K, x1 = 1	1287.34	1423.5
303.15 K, x1 = 0.0956	942.923	1190.1
303.15 K, x1 = 0.1919	1004.08	1212.6
303.15 K, x1 = 0.273	1048.36	1237.4
303.15 K, x1 = 0.3698	1094.3	1265.2
303.15 K, x1 = 0.4639	1133.2	1289.9
303.15 K, x1 = 0.5701	1171.25	1317.5
303.15 K, x1 = 0.6787	1205.24	1342.6
303.15 K, x1 = 0.7746	1231.69	1360.1
303.15 K, x1 = 0.8707	1255.4	1382.6
303.15 K, x1 = 0.9354	1270.13	1397.1
303.15 K, x1 = 1	1283.29	1410.6
308.15 K, x1 = 0.0956	938.4	1170.2
308.15 K, x1 = 0.1919	999.626	1195.2
308.15 K, x1 = 0.273	1043.86	1223.8
308.15 K, x1 = 0.3698	1089.96	1252.4
308.15 K, x1 = 0.4639	1128.94	1282.6
308.15 K, x1 = 0.5701	1167.43	1309.4
308.15 K, x1 = 0.6787	1201.36	1335.2
308.15 K, x1 = 0.7746	1227.89	1354.9
308.15 K, x1 = 0.8707	1251.38	1369.7
308.15 K, x1 = 0.9354	1265.98	1384.4
308.15 K, x1 = 1	1279.4	1398.2
313.15 K, x1 = 0.0956	933.877	1150.1
313.15 K, x1 = 0.1919	995.525	1177
313.15 K, x1 = 0.273	1039.84	1206.8
313.15 K, x1 = 0.3698	1085.95	1236.5
313.15 K, x1 = 0.4639	1124.72	1267.5
313.15 K, x1 = 0.5701	1163.39	1295.4
313.15 K, x1 = 0.6787	1197.76	1321.8
313.15 K, x1 = 0.7746	1224.59	1341.9
313.15 K, x1 = 0.8707	1248.25	1356.9
313.15 K, x1 = 0.9354	1262.68	1372
313.15 K, x1 = 1	1275.48	1386
318.15 K, x1 = 0.0956	929.385	1130.3
318.15 K, x1 = 0.1919	991.164	1158.8
318.15 K, x1 = 0.273	1035.44	1189.8
318.15 K, x1 = 0.3698	1081.67	1220.7
318.15 K, x1 = 0.4639	1120.61	1252.5
318.15 K, x1 = 0.5701	1159.18	1280.7
318.15 K, x1 = 0.6787	1193.95	1308.5
318.15 K, x1 = 0.7746	1221	1329
318.15 K, x1 = 0.8707	1244.79	1344.4
318.15 K, x1 = 0.9354	1258.89	1359.8
318.15 K, x1 = 1	1271.56	1374.2
323.15 K, x1 = 0.0956	924.824	1110.4
323.15 K, x1 = 0.1919	986.823	1140.8
323.15 K, x1 = 0.273	1031.16	1172.9
323.15 K, x1 = 0.3698	1077.6	1205.1
323.15 K, x1 = 0.4639	1116.43	1237.1
323.15 K, x1 = 0.5701	1155.28	1267
323.15 K, x1 = 0.6787	1190.27	1295.7
323.15 K, x1 = 0.7746	1217.39	1316.4
323.15 K, x1 = 0.8707	1241.1	1332.1
323.15 K, x1 = 0.9354	1255.1	1347.8
323.15 K, x1 = 1	1267.63	1362.5
